Measured values as given in patent US20090181963A1, “3H-[1,2,3]TRIAZOLO[4,5-D]PYRIMIDINE COMPOUNDS, THEIR USE AS mTOR KINASE AND PI3 KINASE INHIBITORS, AND THEIR [sequence]” (Wyeth, priority 2008, published 2009).

Tests used:
PI3 Kinase α = PI3 Kinase α (Homo sapiens, UniProt P42336); assay: Fluorescence polarization assay for PI3K (PI3 Kinase α); format: biochemical; details: diC8-PI(4,5)P2 substrate, 25 μM ATP, one hour at 25° C.
PI3 Kinase γ = PI3 Kinase γ (Homo sapiens, UniProt P48736); assay: Fluorescence polarization assay for PI3K (PI3 Kinase γ); format: biochemical; details: diC8-PI(4,5)P2 substrate, 25 μM ATP, one hour at 25° C.
Chain of PI3 Kinase γ (P48736 whole entry): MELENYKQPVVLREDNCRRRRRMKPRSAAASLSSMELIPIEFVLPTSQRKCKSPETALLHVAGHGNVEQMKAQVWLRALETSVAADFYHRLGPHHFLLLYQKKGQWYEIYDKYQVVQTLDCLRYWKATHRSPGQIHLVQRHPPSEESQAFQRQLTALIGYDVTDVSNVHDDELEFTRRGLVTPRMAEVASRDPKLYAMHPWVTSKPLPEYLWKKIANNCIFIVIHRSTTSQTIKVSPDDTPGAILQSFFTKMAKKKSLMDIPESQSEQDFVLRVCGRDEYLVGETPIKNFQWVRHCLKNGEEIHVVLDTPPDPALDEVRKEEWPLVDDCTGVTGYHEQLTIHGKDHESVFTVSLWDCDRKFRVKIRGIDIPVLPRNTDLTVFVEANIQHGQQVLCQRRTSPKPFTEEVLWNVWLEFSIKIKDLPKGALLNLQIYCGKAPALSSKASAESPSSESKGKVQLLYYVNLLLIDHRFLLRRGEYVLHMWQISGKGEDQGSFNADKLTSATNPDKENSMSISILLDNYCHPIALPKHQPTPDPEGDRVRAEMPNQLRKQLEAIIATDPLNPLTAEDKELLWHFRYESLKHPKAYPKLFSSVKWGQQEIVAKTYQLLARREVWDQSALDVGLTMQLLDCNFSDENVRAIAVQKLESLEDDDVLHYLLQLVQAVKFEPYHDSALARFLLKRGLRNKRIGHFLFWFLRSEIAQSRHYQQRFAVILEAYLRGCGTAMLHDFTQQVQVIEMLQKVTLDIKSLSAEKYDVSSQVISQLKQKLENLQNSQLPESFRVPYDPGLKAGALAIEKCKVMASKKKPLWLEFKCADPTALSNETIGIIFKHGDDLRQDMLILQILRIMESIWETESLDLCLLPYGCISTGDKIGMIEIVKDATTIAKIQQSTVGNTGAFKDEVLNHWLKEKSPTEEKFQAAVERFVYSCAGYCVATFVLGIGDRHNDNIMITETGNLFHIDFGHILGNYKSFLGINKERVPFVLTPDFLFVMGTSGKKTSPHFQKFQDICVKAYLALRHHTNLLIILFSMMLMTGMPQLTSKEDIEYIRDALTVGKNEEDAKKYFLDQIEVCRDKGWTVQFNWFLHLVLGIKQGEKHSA

Chain of PI3 Kinase α (P42336 whole entry): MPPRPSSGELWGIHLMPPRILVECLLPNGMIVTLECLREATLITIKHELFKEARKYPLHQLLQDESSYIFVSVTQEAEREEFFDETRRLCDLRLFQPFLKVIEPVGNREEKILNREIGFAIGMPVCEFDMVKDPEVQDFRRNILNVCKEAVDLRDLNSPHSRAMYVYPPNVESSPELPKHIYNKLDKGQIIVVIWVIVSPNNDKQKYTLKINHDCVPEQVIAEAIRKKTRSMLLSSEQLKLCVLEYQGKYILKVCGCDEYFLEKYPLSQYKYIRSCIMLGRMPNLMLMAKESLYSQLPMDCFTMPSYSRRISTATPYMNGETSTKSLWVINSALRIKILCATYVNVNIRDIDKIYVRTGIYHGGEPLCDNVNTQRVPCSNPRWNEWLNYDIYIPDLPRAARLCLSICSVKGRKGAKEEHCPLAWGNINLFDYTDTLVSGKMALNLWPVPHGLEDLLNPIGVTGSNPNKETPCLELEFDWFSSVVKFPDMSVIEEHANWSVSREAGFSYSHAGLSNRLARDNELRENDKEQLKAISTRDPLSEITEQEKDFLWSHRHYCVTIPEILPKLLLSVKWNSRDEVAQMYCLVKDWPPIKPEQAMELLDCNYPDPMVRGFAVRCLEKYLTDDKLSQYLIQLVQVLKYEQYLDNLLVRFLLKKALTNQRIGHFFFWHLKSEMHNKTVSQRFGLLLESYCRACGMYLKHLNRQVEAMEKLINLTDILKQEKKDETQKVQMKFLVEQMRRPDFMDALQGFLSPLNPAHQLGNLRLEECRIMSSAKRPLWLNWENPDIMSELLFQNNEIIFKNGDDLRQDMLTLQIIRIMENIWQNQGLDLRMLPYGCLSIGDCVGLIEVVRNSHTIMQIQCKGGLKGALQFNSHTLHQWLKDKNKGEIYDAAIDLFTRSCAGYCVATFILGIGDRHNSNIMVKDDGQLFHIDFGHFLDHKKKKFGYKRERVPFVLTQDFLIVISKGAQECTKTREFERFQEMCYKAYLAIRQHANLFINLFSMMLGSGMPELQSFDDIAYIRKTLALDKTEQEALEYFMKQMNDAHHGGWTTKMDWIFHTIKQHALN
Chain of PI3 Kinase α (P27986 whole entry partner): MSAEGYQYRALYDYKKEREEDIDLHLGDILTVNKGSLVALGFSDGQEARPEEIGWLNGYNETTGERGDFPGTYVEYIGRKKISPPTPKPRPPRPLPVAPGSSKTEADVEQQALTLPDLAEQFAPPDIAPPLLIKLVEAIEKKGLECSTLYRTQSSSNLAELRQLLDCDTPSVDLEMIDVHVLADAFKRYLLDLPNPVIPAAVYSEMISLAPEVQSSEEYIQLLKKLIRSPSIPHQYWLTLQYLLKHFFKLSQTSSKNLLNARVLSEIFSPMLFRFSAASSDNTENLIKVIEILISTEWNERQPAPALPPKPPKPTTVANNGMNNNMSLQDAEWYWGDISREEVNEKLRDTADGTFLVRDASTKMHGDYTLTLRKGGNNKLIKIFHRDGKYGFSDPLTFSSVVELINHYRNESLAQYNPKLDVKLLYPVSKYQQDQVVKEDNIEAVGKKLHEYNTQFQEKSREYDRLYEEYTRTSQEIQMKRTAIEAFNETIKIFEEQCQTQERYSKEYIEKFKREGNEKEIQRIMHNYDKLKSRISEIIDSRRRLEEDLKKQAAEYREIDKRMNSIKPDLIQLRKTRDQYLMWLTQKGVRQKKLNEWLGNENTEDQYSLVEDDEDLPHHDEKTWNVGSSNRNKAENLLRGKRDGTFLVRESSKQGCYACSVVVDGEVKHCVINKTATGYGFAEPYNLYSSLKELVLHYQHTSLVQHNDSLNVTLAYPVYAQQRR

| IC50 (PI3 Kinase α) [nM] | IC50 (PI3 Kinase γ) [nM] | Structure (SMILES) |
| --- | --- | --- |
|  | 2.8 | CCn1nnc2c(N3CCOC[C@@H]3C)nc(-c3ccc(NC(=O)Nc4ccc(C(=O)N5CCC(N(C)C)CC5)cc4)cc3)nc21 [Example 281, (S)-1-(4-(4-(dimethylamino)piperidine-1-carbonyl)phenyl)-3-(4-(3-ethyl-7-(3-methylmorpholino)-3H-[1,2,3]triazolo[4,5-d]pyrimidin-5-yl)phenyl)urea] |
|  | 6 | CCn1nnc2c(N3CCOCC3)nc(-c3ccc(NC(=O)Nc4ccc(C(=O)N5CCN(C)CC5)nc4)cc3)nc21 [Example 289, 1-[4-(3-ethyl-7-morpholin-4-yl-3H-[1,2,3]triazolo[4,5-d]pyrimidin-5-yl)phenyl]-3-{6-[(4-methylpiperazin-1-yl)carbonyl]pyridin-3-yl}urea] |
|  | 3.35 | CCn1nnc2c(N3CCOC[C@@H]3C)nc(-c3ccc(NC(=O)Nc4ccc(C(=O)NCCN5CCCC5)cc4)cc3)nc21 [Example 283, 4-{[(4-{3-ethyl-7-[(3S)-3-methylmorpholin-4-yl]-3H-[1,2,3]triazolo[4,5-d]pyrimidin-5-yl}phenyl)carbamoyl]amino}-N-(2-pyrrolidin-1-ylethyl)benzamide] |
|  | 91.5 | CCn1nnc2c(N3CCOCC3)nc(-c3ccc(NC(=O)Nc4ccc(C(=O)OC)nc4)cc3)nc21 [Example 287, Methyl 5-({[4-(3-ethyl-7-morpholin-4-yl-3H-[1,2,3]triazolo[4,5-d]pyrimidin-5-yl)phenyl]carbamoyl}amino)pyridine-2-carboxylate] |
|  | 4.35 | CCn1nnc2c(N3CCOC[C@@H]3C)nc(-c3ccc(NC(=O)Nc4ccc(C(=O)NCCN5CCCCC5)cc4)cc3)nc21 [Example 284, 4-{[(4-{3-ethyl-7-[(3S)-3-methylmorpholin-4-yl]-3H-[1,2,3]triazolo[4,5-d]pyrimidin-5-yl}phenyl)carbamoyl]amino}-N-(2-piperidin-1-ylethyl)benzamide] |
|  | 21.5 | CC(C)n1nnc2c(N3CCOCC3)nc(-c3ccc(NC(=O)Nc4ccc([N+](=O)[O-])cc4)cc3)nc21 [Example 278, 1-{4-[3-(1-methylethyl)-7-morpholin-4-yl-3H-[1,2,3]triazolo[4,5-d]pyrimidin-5-yl]phenyl}-3-(4-nitrophenyl)urea] |
|  | 12 | CC(C)n1nnc2c(N3CCOCC3)nc(-c3ccc(NC(=O)Nc4ccc(NS(C)(=O)=O)cc4)cc3)nc21 [Example 279, N-[4-({[4-(3-isopropyl-7-morpholin-4-yl-3H-[1,2,3]triazolo[4,5-d]pyrimidin-5-yl)phenyl]carbamoyl}amino)phenyl]methanesulfonamide] |
|  | 7.5 | CC(C)n1nnc2c(N3CCOCC3)nc(-c3ccc(NC(=O)Nc4ccc(N)cc4)cc3)nc21 [Example 280, 1-(4-aminophenyl)-3-[4-(3-isopropyl-7-morpholin-4-yl-3H-[1,2,3]triazolo[4,5-d]pyrimidin-5-yl)phenyl]urea] |
|  | 5.5 | CC(C)n1nnc2c(N3CCOCC3)nc(-c3ccc(NC(=O)Nc4ccc(N5CCN(C)CC5)cc4)cc3)nc21 [Example 277, 1-{4-[3-(1-methylethyl)-7-morpholin-4-yl-3H-[1,2,3]triazolo[4,5-d]pyrimidin-5-yl]phenyl}-3-[4-(4-methylpiperazin-1-yl)phenyl]urea] |

More lines, now with the values behind:

| Structure (SMILES) | IC50 (PI3 Kinase α) [nM] | IC50 (PI3 Kinase γ) [nM] |
| --- | --- | --- |
| CC(C)n1nnc2c(N3CCOCC3)nc(-c3ccc(NC(=O)Nc4ccc(N5CCOCC5)cc4)cc3)nc21 [Example 85, 1-[4-(3-Isopropyl-7-morpholin-4-yl-3H-[1,2,3]triazolo[4,5-d]pyrimidin-5-yl)-phenyl]-3-(4-morpholin-4-yl-phenyl)-urea] | 25 | 78 |
| CNC(=O)Nc1ccc(-c2nc(N3CCOCC3)c3nnn(C(C)C)c3n2)cc1 [Example 91, 1-[4-(3-isopropyl-7-morpholin-4-yl-3H-[1,2,3]triazolo[4,5-d]pyrimidin-5-yl)-phenyl]-3-methyl-urea] | 41.5 | 409 |
| CC(=O)NCCNC(=O)c1ccc(Cn2nnc3c(N4CCOCC4)nc(-c4cccc(O)c4)nc32)cc1 [Example 210, N-(2-acetamidoethyl)-4-{[5-(3-hydroxyphenyl)-7-morpholin-4-yl-3H-[1,2,3]triazolo[4,5-d]pyrimidin-3-yl]methyl}benzamide] | 692 | 782 |
| Nc1ccc(-c2nc(N3CCOCC3)c3nnn(CC(F)(F)F)c3n2)cc1 [Example 133, 4-[7-morpholin-4-yl-3-(2,2,2-trifluoroethyl)-3H-[1,2,3]triazolo[4,5-d]pyrimidin-5-yl]aniline] | 370 | 1380 |
| O=C(Nc1ccc(-c2nc(N3CCOCC3)c3nnn(C4CCNCC4)c3n2)cc1)Nc1cccnc1 [Example 163, 1-[4-(7-morpholin-4-yl-3-piperidin-4-yl-3H-[1,2,3]triazolo[4,5-d]pyrimidin-5-yl)phenyl]-3-pyridin-3-ylurea] | 13.5 | 49.5 |
| CCn1nnc2c(N3CCOC[C@@H]3C)nc(-c3ccc(NC(=O)Nc4ccncc4)cc3)nc21 [Example 71, (S)-1-(4-(3-ethyl-7-(3-methylmorpholino)-3H-[1,2,3]triazolo[4,5-d]pyrimidin-5-yl)phenyl)-3-(pyridin-4-yl)urea] | 7 | 55.5 |
| CN(C)CCCOc1ccc(CN2CCC(n3nnc4c(N5CCOCC5)nc(-c5cncc(O)c5)nc43)CC2)cc1 [Example 17, 5-[3-(1-{4-[3-(dimethylamino)propoxy]benzyl}piperidin-4-yl)-7-morpholin-4-yl-3H-[1,2,3]triazolo[4,5-d]pyrimidin-5-yl]pyridin-3-ol] | 217 | 370 |
| CN(C)CCNC(=O)c1ccc(Cn2nnc3c(N4CCOCC4)nc(-c4cccc(O)c4)nc32)cc1 [Example 214, N-[2-(dimethylamino)ethyl]-4-{[5-(3-hydroxyphenyl)-7-morpholin-4-yl-3H-[1,2,3]triazolo[4,5-d]pyrimidin-3-yl]methyl}benzamide] | 386 | 1540 |
| Oc1cncc(-c2nc(N3CCOCC3)c3nnn(C4CCN(Cc5ccc[nH]5)CC4)c3n2)c1 [Example 29, 5-{7-morpholin-4-yl-3-[1-(1H-pyrrol-2-ylmethyl)piperidin-4-yl]-3H-[1,2,3]triazolo[4,5-d]pyrimidin-5-yl}pyridin-3-ol] | 1140 | 3110 |
| Oc1cccc(-c2nc(N3CCOCC3)c3nnn(CCN4CCN(Cc5ccco5)CC4)c3n2)c1 [Example 113, 3-(3-{2-[4-(2-furylmethyl)piperazin-1-yl]ethyl}-7-morpholin-4-yl-3H-[1,2,3]triazolo[4,5-d]pyrimidin-5-yl)phenol] | 726 | 3350 |
| O=C(c1ccc(Cn2nnc3c(N4CCOCC4)nc(-c4cccc(O)c4)nc32)cc1)N1CCCCC1 [Example 227, 3-{7-morpholin-4-yl-3-[4-(piperidin-1-ylcarbonyl)benzyl]-3H-[1,2,3]triazolo[4,5-d]pyrimidin-5-yl}phenol] | 1130 | 950 |
| CCn1nnc2c(N3CCOCC3)nc(-c3ccc(NC(=O)Nc4ccc(C(=O)N(C)C)cc4)cc3)nc21 [Example 61, 4-({[4-(3-ethyl-7-morpholin-4-yl-3H-[1,2,3]triazolo[4,5-d]pyrimidin-5-yl)phenyl]carbamoyl}amino)-N,N-dimethylbenzamide] | 1.6 | 12 |
| CCn1nnc2c(N3CCOCC3)nc(-c3ccc(NC(=O)Nc4ccc(NCc5ccc(F)nc5)cc4)cc3)nc21 [Example 254, 1-[4-(3-ethyl-7-morpholin-4-yl-3H-[1,2,3]triazolo[4,5-d]pyrimidin-5-yl)phenyl]-3-(4-{[(6-fluoropyridin-3-yl)methyl]amino}phenyl)urea] |  | 7.5 |
| CC(C)n1nnc2c(N3CCOCC3)nc(-c3ccc(NC(=O)Nc4ccc(C(=O)N5CCN(C)CC5)cc4)cc3)nc21 [Example 257, 1-{4-[3-(1-methylethyl)-7-morpholin-4-yl-3H-[1,2,3]triazolo[4,5-d]pyrimidin-5-yl]phenyl}-3-{4-[(4-methylpiperazin-1-yl)carbonyl]phenyl}urea] |  | 10 |
| CCn1nnc2c(N3CCOCC3)nc(-c3ccc(NC(=O)Nc4ccc(NCc5ccncc5)cc4)cc3)nc21 [Example 252, 1-[4-(3-ethyl-7-morpholin-4-yl-3H-[1,2,3]triazolo[4,5-d]pyrimidin-5-yl)phenyl]-3-{4-[(pyridin-4-ylmethyl)amino]phenyl}urea] |  | 3.83 |
| CCn1nnc2c(N3CCOCC3)nc(-c3ccc(NC(=O)Nc4ccc([N+](=O)[O-])cc4)cc3)nc21 [Example 247, 1-[4-(3-ethyl-7-morpholin-4-yl-3H-[1,2,3]triazolo[4,5-d]pyrimidin-5-yl)phenyl]-3-(4-nitrophenyl)urea] |  | 15 |
| CCn1nnc2c(N3CCOCC3)nc(-c3ccc(NC(=O)Nc4ccc(N5CCN(C)CC5)cc4)cc3)nc21 [Example 259, 1-[4-(3-ethyl-7-morpholin-4-yl-3H-[1,2,3]triazolo[4,5-d]pyrimidin-5-yl)phenyl]-3-[4-(4-methylpiperazin-1-yl)phenyl]urea] |  | 4 |
| CCn1nnc2c(N3CCOCC3)nc(-c3ccc(NC(=O)Nc4ccc(NC(=O)N5CCOCC5)cc4)cc3)nc21 [Example 263, N-[4-({[4-(3-ethyl-7-morpholin-4-yl-3H-[1,2,3]triazolo[4,5-d]pyrimidin-5-yl)phenyl]carbamoyl}amino)phenyl]morpholine-4-carboxamide] |  | 3.1 |
| CCn1nnc2c(N3CCOCC3)nc(-c3ccc(NC(=O)Nc4ccc(NC(=O)NCCOC)cc4)cc3)nc21 [Example 276, 1-[4-(3-ethyl-7-morpholin-4-yl-3H-[1,2,3]triazolo[4,5-d]pyrimidin-5-yl)phenyl]-3-(4-{[(2-methoxyethyl)carbamoyl]amino}phenyl)urea] |  | 4.45 |
| CCn1nnc2c(N3CCOCC3)nc(-c3ccc(NC(=O)Nc4ccc(NCc5ccc(OC)nc5)cc4)cc3)nc21 [Example 255, 1-[4-(3-ethyl-7-morpholin-4-yl-3H-[1,2,3]triazolo[4,5-d]pyrimidin-5-yl)phenyl]-3-(4-{[(6-methoxypyridin-3-yl)methyl]amino}phenyl)urea] |  | 5 |
